SMILES strings stand for the structures. Where two headings read alike, the source gives them in different places.

Our source for the viability, IC50 and inhibition values is patent US10604487B2, “Pyridinol derivative or pharmaceutically acceptable salt thereof, and pharmaceutical composition containing same as active ingredient” (Research Cooperation Foundation of Yeungnam University, priority 2016, dated 2020).

A short description of data set [1]: Cytotoxicity test (MTT), U937. Format: cell-based. The conditions noted are these: human, U937, 48 h; for viability at 48 h, 0.01 µM / viability at 48 h, 0.1 µM / viability at 48 h, 1 µM / viability at 48 h, 10 µM / viability at 48 h, 100 µM: U937 cells (monocytic blood cancer-derived cell line), read-out: Cell viability (% of control); for IC50 at 48 h: U937 cells. The procedure: (§1) The human colorectal cancer cell line HT-29 and the monocytic blood cancer-derived cell line U937 were cultured in a RPMI 1640 medium containing 10% FBS and 1% penicillin/streptomycin (PS) at 37° C. under a condition of 5% CO2, and when the cells used herein were grown to 80% or more, they were subcultured at a ratio of 1:3.
(§2) Each type of cells were cultured in a 96 well plate at a concentration of 1×10^5 cells/cm2, treated with a test compound by concentration in a medium only containing 1% FBS and 1% PS at 37° C. under a condition of 5% CO2 for 48 hours and reacted with 5 mg/mL of a 3-[4,5-dimethylthiazol-2-yl]-2,5-diphenyltetrazolium bromide (MTT) reagent for 4 hours, and then the medium was completely removed, the cells were treated with DMSO, formazan crystals were dissolved for 30 minutes, and then absorbance was measured at 540 nm.

Data set [2] can be described thus: Cytotoxicity test (MTT), HT-29. The class given is cell-based. The conditions noted are these: human, HT-29, 48 h; for viability at 48 h, 0.01 µM / viability at 48 h, 0.1 µM / viability at 48 h, 1 µM / viability at 48 h, 10 µM / viability at 48 h, 100 µM: HT-29 cells (colorectal cancer cell line), read-out: Cell viability (% of control); for IC50 at 48 h: HT-29 cells, read-out: IC50 (μM), cytotoxicity. The procedure: as §1, §2

The subject of data set [3] is TNF-α-induced adhesion of monocytes to intestinal epithelial cells. As to the kind of experiment: Inhibitory activity against TNF-α-induced adhesion of monocytes (U937) to intestinal epithelial cells (HT-29). Format: cell-based, human. Particulars: Homo sapiens. The procedure:
HT-29 human colorectal cancer-derived epithelial cells and U937 human-derived monocytic cells were cultured in an RPMI 1640 medium containing 10% FBS and 1% penicillin/streptomycin (PS) at 37° C. under a condition of 5% CO2, and when the cells were grown to 80% or more in a culture flask, they were subcultured in a ratio of 1:3 to be used in this test. The HT-29 cells were cultured in a 24-well plate at a concentration of 2×10^5 cells/cm2, and then the medium only containing 1% FBS and 1% PS was pretreated with a test drug for 1 hour. Afterward, BCECF-loaded U937 cells by being treated with 10 μg/mL of BCECF-AM at 37° C. for 30 minutes and 10 ng/mL of TNF-α reacted with the HT-29 cells previously treated with the test drug at 37° C. for 3 hours. After the reaction, the medium was removed, and then the cells were washed with PBS twice to remove U937 cells that were not adhered. In a subsequent step, for cell lysis, 0.1% Triton X-100 (0.1 M Tris) was treated to allow a reaction at room temperature for 30 minutes, and then fluorescence was measured using a Fluostar optima microplate reader (BMG LABTECH, Germany) to quantify the cells (Carvalho et al., 1996; Thapa et al., 2008).

[4] abbreviates: 1 μM test drug, HT-29/U937 adhesion, 10 ng/mL TNF-α, read-out: Inhibitory activity (%).

For `COC(=O)Nc1nc(C)c(O)c(C)c1C` [Compound 20-1, methyl (5-hydroxy-3,4,6-trimethylpyridin-2-yl)carbamate], in data set [1], the viability at 48 h, 0.01 µM amounted to 97.5 ± 1.6%; the viability at 48 h, 0.1 µM stood at 95.1 ± 5.3%; the viability at 48 h, 1 µM came to 93.7 ± 1.2%; the viability at 48 h, 10 µM was found to be 80.9 ± 12.8%. Moreover, in data set [1], the viability at 48 h, 100 µM was found to be 89.6 ± 1% and the IC50 at 48 h is greater than 100 µM. Moreover, in data set [2], the viability at 48 h, 0.01 µM amounted to 89.7 ± 6.3%; the viability at 48 h, 0.1 µM stood at 84.9 ± 1.9%; the viability at 48 h, 1 µM amounted to 85 ± 3.4%; the viability at 48 h, 10 µM was determined as 82.6 ± 1.3%. Further, in data set [2], the viability at 48 h, 100 µM stood at 73.7 ± 4.5% and the IC50 at 48 h is greater than 100 µM. The inhibition at 1 µM in data set [3] (setting [4]) came to 9.8%.
For the compound `CCCCOC(=O)Nc1nc(C)c(O)c(C)c1C` [Compound 20-2, butyl (5-hydroxy-3,4,6-trimethylpyridin-2-yl)carbamate], in data set [1], the viability at 48 h, 0.01 µM was found to be 87.4 ± 1.3%; the viability at 48 h, 0.1 µM was 84.4 ± 2.3%; the viability at 48 h, 1 µM was 84.6 ± 2%; the viability at 48 h, 10 µM came to 80.7 ± 0.8%. Besides, in data set [1], the viability at 48 h, 100 µM was 74.4 ± 3.8% and the IC50 at 48 h is greater than 100 µM. In data set [2], the viability at 48 h, 0.01 µM is 102 ± 1.4%; the viability at 48 h, 0.1 µM turned out to be 102 ± 3.2%; the viability at 48 h, 1 µM was found to be 98.1 ± 3.4%; the viability at 48 h, 10 µM was determined as 98.3 ± 3.8%. Besides, in data set [2], the viability at 48 h, 100 µM is 67.6 ± 1.9% and the IC50 at 48 h is greater than 100 µM. Besides, the inhibition at 1 µM in data set [3] (setting [4]) stood at 26.9%.
In the case of `Cc1nc(NC(=O)OCC(C)C)c(C)c(C)c1O` [Compound 20-3, isobutyl (5-hydroxy-3,4,6-trimethylpyridin-2-yl)carbamate], in data set [1], the viability at 48 h, 0.01 µM came to 86.3 ± 0.4%; the viability at 48 h, 0.1 µM was 86.3 ± 0.9%; the viability at 48 h, 1 µM is 80.9 ± 2.1%; the viability at 48 h, 10 µM turned out to be 82.2 ± 0.5%. Besides, in data set [1], the viability at 48 h, 100 µM amounted to 72.5 ± 1.9% and the IC50 at 48 h was greater than 100 µM. Also, in data set [2], the viability at 48 h, 0.01 µM amounted to 101 ± 1.9%; the viability at 48 h, 0.1 µM came out at 91 ± 3.6%; the viability at 48 h, 1 µM amounted to 93.3 ± 4.7%; the viability at 48 h, 10 µM stood at 83.7 ± 3.3%. Moreover, in data set [2], the viability at 48 h, 100 µM was 71.2 ± 3.4% and the IC50 at 48 h was greater than 100 µM. Moreover, in data set [3] (setting [4]), the inhibition at 1 µM was found to be 6%.
With `Cc1nc(NC(=O)OCCCl)c(C)c(C)c1O` [Compound 20-4, 2-Chloroethyl (5-hydroxy-3,4,6-trimethylpyridin-2-yl)carbamate], in data set [1], the viability at 48 h, 0.01 µM was 86.1 ± 3.1%; the viability at 48 h, 0.1 µM was determined as 82.7 ± 1%; the viability at 48 h, 1 µM is 83.4 ± 1.3%; the viability at 48 h, 10 µM was found to be 83 ± 0.5%. For the same compound, in data set [1], the viability at 48 h, 100 µM was 79.2 ± 1.3% and the IC50 at 48 h is greater than 100 µM. For the same compound, in data set [2], the viability at 48 h, 0.01 µM was 97.4 ± 2.2%; the viability at 48 h, 0.1 µM was 94.7 ± 3.3%; the viability at 48 h, 1 µM was determined as 88.6 ± 2.2%; the viability at 48 h, 10 µM was 90.2 ± 5.3%. Also, in data set [2], the viability at 48 h, 100 µM came out at 86.7 ± 3.1% and the IC50 at 48 h was greater than 100 µM. For the same compound, the inhibition at 1 µM in data set [3] (setting [4]) was -1.5%.
Turning to `COCCOC(=O)Nc1nc(C)c(O)c(C)c1C` [Compound 20-5, 2-methoxyethyl (5-hydroxy-3,4,6-trimethylpyridin-2-yl)carbamate], in data set [1], the viability at 48 h, 0.01 µM came to 85.4 ± 4.4%; the viability at 48 h, 0.1 µM was 84.2 ± 4.1%; the viability at 48 h, 1 µM was 81.2 ± 0.7%; the viability at 48 h, 10 µM came to 79.9 ± 0.8%. In addition, in data set [1], the viability at 48 h, 100 µM is 77.9 ± 0.8% and the IC50 at 48 h was greater than 100 µM. Further, in data set [2], the viability at 48 h, 0.01 µM turned out to be 89.7 ± 1.2%; the viability at 48 h, 0.1 µM is 83.2 ± 2.6%; the viability at 48 h, 1 µM turned out to be 84.7 ± 1.6%; the viability at 48 h, 10 µM amounted to 85.5 ± 3.3%. Also, in data set [2], the viability at 48 h, 100 µM was 82.3 ± 1.1% and the IC50 at 48 h was greater than 100 µM. Also, in data set [3] (setting [4]), the inhibition at 1 µM was -22.5%.
Take `Cc1nc(NS(C)(=O)=O)c(C)c(C)c1O` [Compound 22-1, N-(5-hydroxy-3,4,6-trimethylpyridin-2-yl)methanesulfonamide]: in data set [1], the viability at 48 h, 0.01 µM was 97.6 ± 5%; the viability at 48 h, 0.1 µM came out at 94.8 ± 3.8%; the viability at 48 h, 1 µM was 95.7 ± 2.4%; the viability at 48 h, 10 µM was 94.4 ± 0.4%. In data set [1], the viability at 48 h, 100 µM was determined as 94.4 ± 2.5% and the concentration for half-maximal inhibition (IC50) at 48 h was greater than 100 µM. Also, in data set [2], the viability at 48 h, 0.01 µM came to 87.6 ± 3.3%; the viability at 48 h, 0.1 µM came to 75.7 ± 8.2%; the viability at 48 h, 1 µM came to 76.1 ± 3.6%; the viability at 48 h, 10 µM was found to be 63.5 ± 1.8%. For the same compound, in data set [2], the viability at 48 h, 100 µM was 43 ± 1.9% and the IC50 at 48 h is 50.1 µM. For the same compound, the inhibition at 1 µM in data set [3] (setting [4]) stood at 18.7%.
In the case of `Cc1ccc(S(=O)(=O)Nc2nc(C)c(O)c(C)c2C)cc1` [Compound 22-2, N-(5-hydroxy-3,4,6-trimethylpyridin-2-yl)-4-methylbenzenesulfonamide], in data set [1], the viability at 48 h, 0.01 µM amounted to 96.6 ± 1.6%; the viability at 48 h, 0.1 µM was 94.5 ± 6.3%; the viability at 48 h, 1 µM amounted to 96.1 ± 3.8%; the viability at 48 h, 10 µM was 90.5 ± 1.7%. Further, in data set [1], the viability at 48 h, 100 µM is 60.9 ± 1.7% and the half-inhibitory concentration (IC50) at 48 h was greater than 100 µM. In data set [2], the viability at 48 h, 0.01 µM is 77.1 ± 3%; the viability at 48 h, 0.1 µM worked out at 76.9 ± 4%; the viability at 48 h, 1 µM worked out at 73.8 ± 5.8%; the viability at 48 h, 10 µM was found to be 71.5 ± 4.6%. Moreover, in data set [2], the viability at 48 h, 100 µM worked out at 62.8 ± 0.5% and the half-maximal inhibitory concentration (IC50) at 48 h is greater than 100 µM. The inhibition at 1 µM in data set [3] (setting [4]) came out at 42.1%.
For `Cc1nc(NS(=O)(=O)c2ccc([N+](=O)[O-])cc2)c(C)c(C)c1O` [Compound 22-4, N-(5-hydroxy-3,4,6-trimethylpyridin-2-yl)-4-nitrobenzenesulfonamide], in data set [1], the viability at 48 h, 0.01 µM came to 95.2 ± 4.6%; the viability at 48 h, 0.1 µM came to 93.3 ± 0.8%; the viability at 48 h, 1 µM stood at 80.2 ± 11.7%; the viability at 48 h, 10 µM was determined as 84.7 ± 1.7%. Also, in data set [1], the viability at 48 h, 100 µM worked out at 70.6 ± 0.4% and the IC50 at 48 h was greater than 100 µM. Further, in data set [2], the viability at 48 h, 0.01 µM turned out to be 96.6 ± 1.3%; the viability at 48 h, 0.1 µM is 97.8 ± 2.4%; the viability at 48 h, 1 µM worked out at 96.3 ± 1.7%; the viability at 48 h, 10 µM was 85.4 ± 6.7%. Further, in data set [2], the viability at 48 h, 100 µM amounted to 64.8 ± 7.1% and the half-inhibitory concentration (IC50) at 48 h was greater than 100 µM. Further, the inhibition at 1 µM in data set [3] (setting [4]) is -2.3%.
Take `Cc1nc(NS(=O)(=O)c2cccc3ccccc23)c(C)c(C)c1O` [Compound 22-5, N-(5-hydroxy-3,4,6-trimethylpyridin-2-yl)naphthalene-1-sulfonamide]: in data set [1], the viability at 48 h, 0.01 µM turned out to be 102 ± 5.4%; the viability at 48 h, 0.1 µM worked out at 93.4 ± 1.2%; the viability at 48 h, 1 µM stood at 92.6 ± 0.9%; the viability at 48 h, 10 µM amounted to 85.1 ± 3.1%. Further, in data set [1], the viability at 48 h, 100 µM was found to be 62.5 ± 2% and the half-inhibitory concentration (IC50) at 48 h is greater than 100 µM. Moreover, in data set [2], the viability at 48 h, 0.01 µM came to 95.2 ± 3.3%; the viability at 48 h, 0.1 µM was 86.7 ± 6.5%; the viability at 48 h, 1 µM worked out at 87.8 ± 3.2%; the viability at 48 h, 10 µM was determined as 89.1 ± 3.5%. In data set [2], the viability at 48 h, 100 µM was determined as 88.8 ± 1.2% and the IC50 at 48 h was greater than 100 µM. In addition, the inhibition at 1 µM in data set [3] (1 μM, Table 8, read-out: 1 μM concentration inhibitory activity) stood at 80.6%. Further, in data set [3] (HT-29/U937 adhesion, TNF-α-induced, read-out: IC50 (adhesion inhibition)), the 50% inhibitory concentration (IC50) was 0.23 µM.
